Data reported in PubChem BioAssay (NCI).
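Briefly, cells in 96-well plates were exposed to five compound concentrations for 48 h, and endpoints were estimated by linear interpolation. TGI denotes the concentration required for complete inhibition of growth.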

Key:
Assay in all cases: DTP human tumour cell line panel, 48 h
[1] = tested on: 786-0 renal
[2] = tested on: A498 renal
[3] = tested on: A549 NSCLC
[4] = tested on: ACHN renal
[5] = tested on: CAKI-1 renal
[6] = tested on: CCRF-CEM leukemia
[7] = tested on: COLO 205 colon
[8] = tested on: DLD-1 colon
[9] = tested on: DMS 114 small cell lung
[10] = tested on: EKVX NSCLC
[11] = tested on: HCT-116 colon
[12] = tested on: HCT-15 colon
[13] = tested on: HL-60(TB) leukemia
[14] = tested on: HOP-18 NSCLC
[15] = tested on: HOP-62 NSCLC
[16] = tested on: HOP-92 NSCLC
[17] = tested on: HT29 colon
[18] = tested on: IGROV1 ovarian
[19] = tested on: K-562 leukemia
[20] = tested on: KM12 colon
[21] = tested on: KM20L2 colon
[22] = tested on: LXFL 529 NSCLC
[23] = tested on: M14 melanoma
[24] = tested on: M19-MEL melanoma
[25] = tested on: MALME-3M melanoma
[26] = tested on: MOLT-4 leukemia
[27] = tested on: NCI-H226 lung
[28] = tested on: NCI-H23 lung
[29] = tested on: NCI-H460 lung
[30] = tested on: NCI-H522 lung
[31] = tested on: OVCAR-3 ovarian
[32] = tested on: OVCAR-4 ovarian
[33] = tested on: OVCAR-5 ovarian
[34] = tested on: OVCAR-8 ovarian
[35] = tested on: RPMI-8226 leukemia
[36] = tested on: RXF 393 renal
[37] = tested on: SF-268 CNS
[38] = tested on: SF-295 CNS
[39] = tested on: SF-539 CNS
[40] = tested on: SK-MEL-2 melanoma
[41] = tested on: SK-MEL-28 melanoma
[42] = tested on: SK-MEL-5 melanoma
[43] = tested on: SK-OV-3 ovarian
[44] = tested on: SN12C renal
[45] = tested on: SNB-19 CNS
[46] = tested on: SNB-75 CNS
[47] = tested on: SNB-78 CNS
[48] = tested on: SW-620 colon
[49] = tested on: TK-10 renal
[50] = tested on: U251 CNS
[51] = tested on: UACC-257 melanoma
[52] = tested on: UACC-62 melanoma
[53] = tested on: UO-31 renal
[54] = tested on: XF 498 CNS
[55] = tested on: DMS 273 small cell lung
[56] = tested on: HCC-2998 colon
[57] = tested on: LOX IMVI melanoma
[58] = tested on: RXF-631 renal
[59] = tested on: SR leukemia

Measured: TGI

Cc1ccc(C2=C(c3ccccc3)C(Br)(c3ccccc3)C(c3ccccc3)=C2c2ccc(C)cc2)cc1
> 100 µM: [1] | [2] | [3] | [4] | [5] | [6] | [7] | [8] | [9] | [10] | [11] | [12] | [13] | [14] | [15] | [16] | [17] | [18] | [19] | [20] | [21] | [22] | [23] | [24] | [25] | [26] | [27] | [28] | [29] | [30] | [31] | [32] | [33] | [34] | [35] | [36] | [37] | [38] | [39] | [40] | [41] | [42] | [43] | [44] | [45] | [46] | [47] | [48] | [49] | [50] | [51] | [52] | [53] | [54]

COC1=CC(=O)[C@]2(C)[C@H](C1=O)C(C)[C@H]2c1ccccc1 (stereo partly drawn)
> 100 µM: [1] | [2] | [3] | [4] | [5] | [6] | [7] | [8] | [55] | [10] | [56] | [12] | [13] | [15] | [16] | [17] | [18] | [19] | [20] | [57] | [22] | [23] | [24] | [25] | [26] | [27] | [28] | [29] | [30] | [31] | [32] | [33] | [34] | [35] | [36] | [58] | [37] | [38] | [39] | [40] | [41] | [42] | [43] | [45] | [46] | [47] | [59] | [48] | [49] | [50] | [51] | [52] | [53] | [54]
